We go through four compounds from patent US20020091144A1, “Treatment of apoptotic cell death” (Johns Hopkins University, priority 2000, published 2002).

Structures are written as SMILES.

One assay concerns PARP holoenzyme. Briefly: Immunoblot of PARP holoenzyme. The assay is classed as cell-based, rat.
Assay [1] has as its system rat cerebellar granule neurons. Nature of the assay: Mitochondrial membrane potential, JC-1 staining, cerebellar granule neurons. Format: cell-based. How it is done: Cytoprotective effects of diazoxide in neurons also was evaluated. […] Staining was conducted as follows: loss of mitochondrial membrane potential (ΨΔ) was assessed using either a laser scanning confocal microscope or flow cytometry analysis of cells stained with 5,5′,6,6′-tetrachloro-1,1′,3,3′-tetraethylbenzimidazolecarbocyanide iodine (JC-1, Molecular Probes). Cells were incubated with 2 μg/mL JC-1 for 10 min in 37° C. After washing the dye, cells on dishes were scanned with a confocal microscope at 10x magnification. The dye was excited by the 488 nm line of an argon laser, and the 543 nm line of a helium/neon laser. […] Green fluorescence reflects the monomeric form of JC-1, occuring in the cytosol after mitochondrial membrane depolarization. The fluorescence intensity of the field was measured using integrated image analysis software (Simple32; Compix, Inc.), which was programmed to automatically detect all areas of red or green fluorescence above background. The data are plotted as mean values of arbitrary units of fluorescence intensity. For flow cytometry analysis, cells were harvested by trypsinization after loading of the dye, and analyzed by FACScan (10,000 cells/sample). The excitation wavelength was 488 nm, and the emission fluorescence for JC-1 was monitored at 530 (FL-1) and 582 nm (FL-2). […]

Assay [2] has as its system poly(ADP-ribose) polymerase (PARP). Nature of the assay: Cleaved PARP immunofluorescent staining. The assay is classed as cell-based, rat. As to the method: (§1) Neonatal rat cardiac myocytes in primary culture were randomly assigned to one of four experimental groups: 1) control group, 2) incubation with 200 μM H2O2, 3) 100 μM diazoxide, applied together with 200 μM H2O2, 4) 100 μM diazoxide and 500 μM 5-HD, applied together with 200 μM H2O2. […] Staining was conducted as follows. TUNEL staining was performed according to the manufacturer's protocol (Roche Molecular Biochemicals). Fluorescein labels incorporated in nucleotide polymers were detected by laser scanning confocal microscopy at excitation wavelength of 488 rim (argon laser). […] Necrotic cells had been excluded from these specimens since they became non-adherent and were removed when the medium was decanted and the cell layers were washed in PBS. […] This effect was blocked by the mitoKATP channel antagonist 5-HD (FIG. 1D). […] That immunofluorescence was conducted as follows: cells were plated on glass coverslips, treated with drugs as indicated, fixed in ice-cold 1:1 mixture of methanol/acetone, blocked with 10% normal goat serum and 0.075% saponin in PBS, and incubated with primary antibody dissolved in blocking solution at a dilution of 1:100. […] These coverslips were mounted with antifading fluorescence mounting medium and were examined by a laser scanning confocal microscope (Zeiss, LSM 410), using 40x water-immersion lens and 2x optical zoom. […]

The test system of assay [3] is Neonatal rat cardiac myocytes. Nature of the assay: Mitochondrial membrane potential, JC-1 flow cytometry, cardiac myocytes. The assay is classed as cell-based. As to the method:
The effects of mitoKATP channel activation by flow cytometry (FIGS. 2F-J) were further quantified. Incubation with 200 μM H2O2 for 2 h decreased the red fluorescence and shifted the distribution curve leftward. […] To confirm the central role of mitoKATP channels, we examined another mitoKATP channel opener, pinacidil.
(§2) Cytoprotective effects of diazoxide in neurons also was evaluated. […] Staining was conducted as follows: loss of mitochondrial membrane potential (ΨΔ) was assessed using either a laser scanning confocal microscope or flow cytometry analysis of cells stained with 5,5′,6,6′-tetrachloro-1,1′,3,3′-tetraethylbenzimidazolecarbocyanide iodine (JC-1, Molecular Probes). Cells were incubated with 2 μg/mL JC-1 for 10 min in 37° C. After washing the dye, cells on dishes were scanned with a confocal microscope at 10x magnification. The dye was excited by the 488 nm line of an argon laser, and the 543 nm line of a helium/neon laser. The red emission of the dye is due to a potential-dependent aggregation in the mitochondria, reflecting ΨΔ. Green fluorescence reflects the monomeric form of JC-1, occuring in the cytosol after mitochondrial membrane depolarization. The fluorescence intensity of the field was measured using integrated image analysis software (Simple32; Compix, Inc.), which was programmed to automatically detect all areas of red or green fluorescence above background. The data are plotted as mean values of arbitrary units of fluorescence intensity. For flow cytometry analysis, cells were harvested by trypsinization after loading of the dye, and analyzed by FACScan (10,000 cells/sample). The excitation wavelength was 488 nm, and the emission fluorescence for JC-1 was monitored at 530 (FL-1) and 582 nm (FL-2). The flow cytometry data are analyzed using Cell Quest (Becton Dickinson, Immunocytometry Systems).
On the technique in general: A flow cytometer gives signals particle by particle.

A further assay deals with caspase-7. Briefly: Activated caspase-7 immunofluorescent staining. Format: cell-based, rat. As to the method: as §1
In the next assay the test system is caspase-3. Nature of the assay: Activated caspase-3 immunofluorescent staining. Format: cell-based, rat. How it is done: as §1
Assay [4] has as its system Neonatal rat cardiac myocytes. Nature of the assay: TUNEL staining of H2O2-induced apoptosis. The assay is classed as cell-based. How it is done:
Neonatal rat cardiac myocytes in primary culture were randomly assigned to one of four experimental groups: 1) control group, 2) incubation with 200 μM H2O2, 3) 100 μM diazoxide, applied together with 200 μM H2O2, 4) 100 μM diazoxide and 500 μM 5-HD, applied together with 200 μM H2O2. […] Staining was conducted as follows. TUNEL staining was performed according to the manufacturer's protocol (Roche Molecular Biochemicals). Fluorescein labels incorporated in nucleotide polymers were detected by laser scanning confocal microscopy at excitation wavelength of 488 rim (argon laser). […] Necrotic cells had been excluded from these specimens since they became non-adherent and were removed when the medium was decanted and the cell layers were washed in PBS.

Assay [5] has as its system Neonatal rat cardiac myocytes. Nature of the assay: Mitochondrial membrane potential, JC-1 confocal image analysis, cardiac myocytes. The assay is classed as cell-based. As to the method:
Redistribution of cytochrome c has been linked to the loss of mitochondrial membrane potential (ΨΔ) and the opening of the mitochondrial permeability transition pore (23). We assessed ΨΔ in H2O2-stimulated myocytes using a fluorescent probe, JC-1 (24). […] Cells exposed to 200 μM H2O2 for 2 h lose punctate red staining (FIG. 2B), in favor of a diffuse green cytosolic signal indicative of the loss of ΨΔ. […] The protective effect of diazoxide is blocked by 500 μM 5-HD (FIG. 2D). These observations were rendered quantitative by automated image analysis (24). FIG. 2E summarizes the red fluorescence, an indicator of ΨΔ.
as §2

For the next assay, the system named is cytochrome c. Nature of the assay: Cytochrome c immunofluorescence (translocation to cytosol). The assay is classed as cell-based, rat. How it is done: as §1
The next assay deals with mitoKATP channel. To be noted: intact heart cells; read-out: value for mitoKATP channel activation; cited from earlier work.
The mark [6] stands for this setting: 500 μM 5-HD + 100 μM diazoxide + 200 μM H2O2.
Where [7] appears, read: 100 μM diazoxide with 200 μM H2O2.

Experimental for PARP holoenzyme: (U) Immunoblot of PARP in neonatal rat cardiac myocytes. Cell lysates from each experimental group were subjected to immunoblot analysis (30 μg protein/lane) with monoclonal antibody against 117-kDa PARP holoenzyme. Cells were treated for either 8 h or 16 hours. To confirm these findings using complementary methods, we examined PARP protein levels as a biochemical indicator of the activation of downstream caspases in each group.

As for `CCCCCC(O)CCCC(=O)O` (stereo not shown) [5-HD, 5-hydroxydecanoate], the “effect on diazoxide protection of PARP holoenzyme” value in the assay on PARP holoenzyme (5-HD + diazoxide + H2O2, 8 h or 16 hours) is “abolished the protective effect of diazoxide”. In assay [1] (500 μM 5-HD + 100 μM diazoxide + 100 μM H2O2 for 1 h), the “effect on diazoxide protection of ΨΔ in neurons” value is given as “blocked”. Also, the “effect on diazoxide inhibition of PARP cleavage” value in assay [2] (setting [6]) is given as “prevented the diazoxide effect”. Further, the “effect of 5-HD alone on ΨΔ” value in [3] (5-HD 500 μM + H2O2, absence of diazoxide) is on record as “no effect on ΨΔ”. The “effect on diazoxide protection of ΨΔ, flow cytometry” value in assay [3] (5-HD 500 μM + diazoxide 100 μM + 200 μM H2O2) was “abolished the effect of diazoxide”. For the same compound, the “effect on diazoxide inhibition of caspase-7 activation” value in the assay on caspase-7 (setting [6]) is given as “abolished the anti-apoptosic effect of diazoxide”. Also, the “effect on diazoxide inhibition of caspase-3 activation” value in the assay with caspase-3 (setting [6]) was “negated the effect of diazoxide”. Further, the “effect on diazoxide protection against TUNEL positivity” value in [4] (500 μM 5-HD + 100 μM diazoxide + 200 μM H2O2, 16 h) is “blocked”. The “effect on diazoxide prevention of loss of ΨΔ, automated image analysis” value in assay [5] (500 μM 5-HD + 100 μM diazoxide + 200 μM H2O2 for 2 h) is given as “antagonized the salutary effect of diazoxide”. The “effect on diazoxide protection of ΨΔ” value in assay [5] (500 μM 5-HD + 100 μM diazoxide + 200 μM H2O2 for 2 h, confocal images) is “blocked”. In addition, in the assay on cytochrome c (setting [6]), the “effect on diazoxide inhibition of cytochrome c translocation” value is listed as “abrogated the effect of diazoxide”.
As for `CC1=NS(=O)(=O)c2cc(Cl)ccc2N1` [diazoxide], the “loss of 117-kDa PARP holoenzyme band” value with PARP holoenzyme (diazoxide with H2O2, 8 h or 16 hours) is given as “attenuates the loss of PARP holoenzyme”. For the same compound, the “H2O2-induced loss of ΨΔ in neurons, JC-1 red staining” value in assay [1] (100 μM diazoxide, 100 μM H2O2 for 1 h) was “protects against H2O2-induced loss of mitochondrial integrity”. Further, the “H2O2-induced PARP cleavage” value in assay [2] (setting [7]) is on record as “inhibited the H2O2-induced PARP cleavage”. Moreover, in assay [3] (diazoxide 20, 50, 100 μM, 200 μM H2O2 for 2 h), the “H2O2-induced dissipation of ΨΔ, red fluorescence distribution” value is given as “prevented the H2O2-induced dissipation of ΨΔ in a dose-dependent manner”. Also, the “H2O2-induced activation of caspase-7” value in the assay with caspase-7 (setting [7]) was “inhibited H2O2-induced activation of caspase-7”. Further, in the assay on caspase-3 (setting [7]), the “H2O2-induced activation of caspase-3” value is “inhibited the H2O2-induced activation of caspase-3”. Besides, the EC50 in the assay with mitoKATP channel was 27 µM; in assay [5] (Rattus norvegicus, 200 μM H2O2 for 2 h, red fluorescence, automated image analysis, read-out: EC50 for prevention of loss of ΨΔ) it was 40 µM. Moreover, the “H2O2-induced TUNEL positive nuclei” value in assay [4] (100 μM diazoxide with 200 μM H2O2, 16 h) is reported as “decreased the frequency of H2O2-induced TUNEL positive nuclei”. Besides, the “H2O2-induced loss of mitochondrial membrane potential (ΨΔ), JC-1 red staining” value in assay [5] (100 μM diazoxide, 200 μM H2O2 for 2 h, confocal images) is “protects against H2O2-induced loss of mitochondrial integrity”. For the same compound, the “loss of ΨΔ, red fluorescence by automated image analysis” value in [5] (diazoxide 20-200 μM, 200 μM H2O2 for 2 h) is “prevented loss of ΨΔ in a dose-dependent manner”. In addition, in the assay with cytochrome c (100 μM diazoxide with 200 μM H2O2, 16 hours), the “H2O2-induced cytochrome c translocation to the cytoplasm” value is reported as “inhibited the translocation of cytochrome c”.
As to `COc1ccc(Cl)cc1C(=O)NCCc1ccc(S(=O)(=O)NC(=O)NC2CCCCC2)cc1` [glibenclamide], the “effect of KATP blocker on diazoxide protection of ΨΔ” value in [3] (glibenclamide 10 μM with diazoxide and H2O2) is “reversed the salutary effect of diazoxide”.
Consider `CC(N/C(=N\C#N)Nc1ccncc1)C(C)(C)C` (stereo not shown) [pinacidil], for which the “restoring the loss of ΨΔ induced by H2O2” value in assay [3] (100 μM pinacidil, 200 μM H2O2) is reported as “equi-effective to diazoxide”.
